Source: patent US9113629B2, “4-amino-6-(4-substituted-phenyl)-picolinates and 6-amino-2-(4-substituted-phenyl)-pyrimidine-4-carboxylates and their use as herbicides” (DOW AGROSCIENCES LLC, priority 2013, dated 2015)

How the values were obtained:
Assay in all cases: Post-emergent Test III, herbicidal activity in wheat and barley
Format in all cases: in vivo
[1] = tested on: CIRAR: Canada thistle (Cirsium arvense); conditions: Table 8, 21 d; for pest or weed control at 35 g/ha / pest or weed control at 70 g/ha / pest or weed control at 140 g/ha: Cirsium arvense, post-emergence, 504 h, post-emergent, read-out: Visual Growth Reduction (%) 21 Days After Application CIRAR; for pest or weed control at 35 g/ha: 35 g ai/ha; for pest or weed control at 70 g/ha: 70 g ai/ha; for pest or weed control at 140 g/ha: 140 g ai/ha; for GR50 CIRAR: dose for 50 percent growth reduction; for GR50 CIRAR / GR80 CIRAR: probit analysis; for GR80 CIRAR: dose for 80 percent growth reduction
Summary of the method: (§1)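 Plants at the second to third true-leaf stage, grown in a greenhouse at about 18/17 °C with a 14 h photoperiod, were sprayed post-emergence at 187 L/ha with the high rate and ½× to 1/16× serial dilutions in an acetone/DMSO/crop-oil/surfactant carrier. Injury was rated visually at 21 d on a 0–100% scale, and GR20–GR90 were derived by probit analysis.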

[2] = tested on: GALAP: cleavers (Galium aparine); conditions: Table 8, 21 d; for pest or weed control at 35 g/ha / pest or weed control at 70 g/ha / pest or weed control at 140 g/ha: Galium aparine, post-emergence, 504 h, post-emergent, read-out: Visual Growth Reduction (%) 21 Days After Application GALAP; for pest or weed control at 35 g/ha: 35 g ai/ha; for pest or weed control at 70 g/ha: 70 g ai/ha; for pest or weed control at 140 g/ha: 140 g ai/ha; for GR50 GALAP: dose for 50 percent growth reduction; for GR50 GALAP / GR80 GALAP: probit analysis; for GR80 GALAP: dose for 80 percent growth reduction
Summary of the method: as §1

[3] = tested on: PAPRH: common poppy (Papaver rhoeas); conditions: Table 8, 21 d; for pest or weed control at 35 g/ha / pest or weed control at 70 g/ha / pest or weed control at 140 g/ha: Papaver rhoeas, post-emergence, 504 h, post-emergent, read-out: Visual Growth Reduction (%) 21 Days After Application PAPRH; for pest or weed control at 35 g/ha: 35 g ai/ha; for pest or weed control at 70 g/ha: 70 g ai/ha; for pest or weed control at 140 g/ha: 140 g ai/ha; for GR50 PAPRH: dose for 50 percent growth reduction; for GR50 PAPRH / GR80 PAPRH: probit analysis; for GR80 PAPRH: dose for 80 percent growth reduction
Summary of the method: as §1

[4] = tested on: SASKR: Russian thistle (Salsola iberica); conditions: Table 8, 21 d; for pest or weed control at 35 g/ha / pest or weed control at 70 g/ha / pest or weed control at 140 g/ha: Salsola tragus, post-emergence, 504 h, post-emergent, read-out: Visual Growth Reduction (%) 21 Days After Application SASKR; for pest or weed control at 35 g/ha: 35 g ai/ha; for pest or weed control at 70 g/ha: 70 g ai/ha; for pest or weed control at 140 g/ha: 140 g ai/ha; for GR80 SASKR: dose for 80 percent growth reduction; for GR80 SASKR / GR50 SASKR: probit analysis; for GR50 SASKR: dose for 50 percent growth reduction
Summary of the method: as §1

[5] = tested on: VERPE: bird's-eye speedwell (veronica persica); conditions: Table 8, 21 d; for GR50 VERPE: dose for 50 percent growth reduction; for GR50 VERPE / GR80 VERPE: probit analysis; for GR80 VERPE: dose for 80 percent growth reduction; for pest or weed control at 35 g/ha / pest or weed control at 70 g/ha / pest or weed control at 140 g/ha: Veronica persica, post-emergence, 504 h, post-emergent, read-out: Visual Growth Reduction (%) 21 Days After Application VERPE; for pest or weed control at 35 g/ha: 35 g ai/ha; for pest or weed control at 70 g/ha: 70 g ai/ha; for pest or weed control at 140 g/ha: 140 g ai/ha
Summary of the method: as §1

SMILES	pest or weed control at 35 g/ha [1]	pest or weed control at 70 g/ha [1]	GR50 CIRAR [1]	GR80 CIRAR [1]	pest or weed control at 35 g/ha [2]	pest or weed control at 70 g/ha [2]	GR50 GALAP [2]	GR80 GALAP [2]	pest or weed control at 35 g/ha [3]	pest or weed control at 70 g/ha [3]	GR50 PAPRH [3]	GR80 PAPRH [3]	pest or weed control at 35 g/ha [4]	pest or weed control at 70 g/ha [4]	GR80 SASKR [4]	GR50 VERPE [5]	GR80 VERPE [5]	pest or weed control at 35 g/ha [5]	pest or weed control at 70 g/ha [5]	GR50 SASKR [4]	further results
Nc1c(Cl)c(C(=O)O)nc(-c2ccc(I)c(F)c2)c1Cl [Compound 145, 4-Amino-3,5-dichloro-6-(3-fluoro-4-iodophenyl)picolinic acid]	95 to 100%	85 to 94%	2 g ai/ha	7 g ai/ha	45 to 59%	75 to 84%	18 g ai/ha	54 g ai/ha	95 to 100%	95 to 100%	1 g ai/ha	1 g ai/ha	60 to 74%	75 to 84%	79 g ai/ha	1 g ai/ha	10 g ai/ha	85 to 94%	85 to 94%	–	pest or weed control at 140 g/ha [1]: 95 to 100%; pest or weed control at 140 g/ha [2]: 95 to 100%; pest or weed control at 140 g/ha [3]: 95 to 100%; pest or weed control at 140 g/ha [4]: 85 to 94%; pest or weed control at 140 g/ha [5]: 95 to 100%
COC(=O)c1nc(-c2ccc(I)c(F)c2)c(C)c(N)c1Cl [Compound 79, Methyl 4-amino-3-chloro-6-(3-fluoro-4-iodophenyl)-5-methylpicolinate]	95 to 100%	95 to 100%	1 g ai/ha	5 g ai/ha	95 to 100%	95 to 100%	4 g ai/ha	6 g ai/ha	95 to 100%	95 to 100%	1 g ai/ha	1 g ai/ha	75 to 84%	85 to 94%	43 g ai/ha	2 g ai/ha	37 g ai/ha	75 to 84%	85 to 94%	11 g ai/ha	–
COC(=O)c1nc(-c2ccc(C#N)c(F)c2)c(F)c(N)c1Cl [Compound 135, methyl 4-amino-3-chloro-6-(4-cyano-3-fluorophenyl)-5-fluoropicolinate]	85 to 94%	85 to 94%	1 g ai/ha	13 g ai/ha	60 to 74%	95 to 100%	12 g ai/ha	38 g ai/ha	85 to 94%	85 to 94%	1 g ai/ha	1 g ai/ha	60 to 74%	60 to 74%	>140 g ai/ha	24 g ai/ha	78 g ai/ha	60 to 74%	75 to 84%	3 g ai/ha	pest or weed control at 140 g/ha [1]: 85 to 94%; pest or weed control at 140 g/ha [2]: 95 to 100%; pest or weed control at 140 g/ha [3]: 95 to 100%; pest or weed control at 140 g/ha [4]: 75 to 84%; pest or weed control at 140 g/ha [5]: 85 to 94%
COC(=O)c1nc(-c2ccc(I)c(F)c2)nc(N)c1OC [Compound 27, Methyl 6-amino-2-(3-fluoro-4-iodophenyl)-5-methoxypyrimidine-4-carboxylate]	75 to 84%	75 to 84%	18 g ai/ha	70 g ai/ha	85 to 94%	85 to 94%	5 g ai/ha	25 g ai/ha	95 to 100%	95 to 100%	1 g ai/ha	1 g ai/ha	60 to 74%	60 to 74%	116 g ai/ha	5 g ai/ha	42 g ai/ha	75 to 84%	85 to 94%	22 g ai/ha	–
Nc1cc(-c2cc(F)c(Br)cc2F)nc(C(=O)O)c1Cl [Compound 3]	60 to 74%	75 to 84%	18 g ai/ha	53 g ai/ha	95 to 100%	95 to 100%	5 g ai/ha	7 g ai/ha	95 to 100%	95 to 100%	1 g ai/ha	1 g ai/ha	75 to 84%	85 to 94%	28 g ai/ha	34 g ai/ha	126 g ai/ha	45 to 59%	60 to 74%	2 g ai/ha	–
COC(=O)c1nc(-c2ccc(Br)c(F)c2)nc(N)c1OC [Compound 171, Methyl 6-amino-2-(4-bromo-3-fluorophenyl)-5-methoxypyrimidine-4-carboxylate]	60 to 74%	60 to 74%	17 g ai/ha	80 g ai/ha	85 to 94%	95 to 100%	–	23 g ai/ha	95 to 100%	95 to 100%	1 g ai/ha	1 g ai/ha	60 to 74%	75 to 84%	67 g ai/ha	4 g ai/ha	27 g ai/ha	85 to 94%	85 to 94%	21 g ai/ha	–
Nc1cc(-c2ccc(I)cc2F)nc(C(=O)O)c1Cl [Compound 124]	60 to 74%	75 to 84%	24 g ai/ha	91 g ai/ha	85 to 94%	95 to 100%	6 g ai/ha	21 g ai/ha	95 to 100%	95 to 100%	1 g ai/ha	1 g ai/ha	60 to 74%	85 to 94%	53 g ai/ha	20 g ai/ha	39 g ai/ha	75 to 84%	85 to 94%	12 g ai/ha	–
Nc1c(Cl)c(C(=O)O)nc(-c2ccc(Br)c(F)c2)c1Cl [Compound 43, 4-Amino-6-(4-bromo-3-fluorophenyl)-3,5-dichloropicolinic acid]	85 to 94%	85 to 94%	0 g ai/ha	13 g ai/ha	95 to 100%	95 to 100%	2 g ai/ha	6 g ai/ha	95 to 100%	95 to 100%	1 g ai/ha	1 g ai/ha	75 to 84%	75 to 84%	61 g ai/ha	33 g ai/ha	>140 g ai/ha	30 to 44%	75 to 84%	3 g ai/ha	–
